Reference: patent US20230346773A1, “USE OF PCSK9 INHIBITOR IN PREPARATION OF PRODUCT FOR TREATING MULTIPLE DISEASES” (priority 2020, published 2023)

Columns and labels:
Format in all cases: in vivo, Wistar rats
TIMP-1 = assay: Bleomycin pulmonary fibrosis rat model: TIMP-1 expression in lung tissue; details: after 14 days of treatment, tail vein 3 mg/kg·d, n = 6, x ± s
Procedure: (§1) Rats were numbered according to their body weight and divided into groups according to their body weight by random arrangement table method, and divided into small molecule compound treatment group (tail vein injection of PCSK9 small molecule compound inhibitor, 3 mg/kg·d), siPcsk9 treatment group (Tail vein injection of PCSK9 small interfering RNA, 3 mg/kg·d), monoclonal antibody treatment group (tail vein injection of PCSK9 monoclonal antibody, 3 mg/kg·d), peptide treatment group (tail vein injection of PCSK9 polypeptide inhibitor, 3 mg/kg·d), model group (injection of physiological saline into tail vein, 3 mg/kg·d), and blank control group (injection of physiological saline into tail vein, 3 mg/kg·d), 12 animals in each group, half male and half female. Rats in each group were anesthetized by intraperitoneal injection of 2% sodium pentobarbital ([…]), fixed on the operating table, and injected into the neck trachea. The control group was injected with normal saline (1.25 ml/kg), and the model group and each treatment group were injected with 5 U/mL bleomycin solution (5 mg/kg). […]
(§2) Peripheral venous blood was collected from the tail vein of animals in each group after modeling and 14 days after treatment, and the levels of superoxide dismutase (SOD) and catalase (CAT) in peripheral blood were detected. […]

MMP-2 = assay: Bleomycin pulmonary fibrosis rat model: MMP-2 expression in lung tissue; details: after 14 days of treatment, tail vein 3 mg/kg·d, n = 6, x ± s
Procedure: as §1, §2

MMP-9 = assay: Bleomycin pulmonary fibrosis rat model: MMP-9 expression in lung tissue; details: after 14 days of treatment, tail vein 3 mg/kg·d, n = 6, x ± s
Procedure: as §1, §2

VEGF-mRNA = assay: Bleomycin pulmonary fibrosis rat model: VEGF-mRNA in lung tissue by reverse transcription PCR; details: n = 6, x ± s
Procedure: as §1, §2

[1] = system: superoxide dismutase (SOD); assay: Bleomycin pulmonary fibrosis rat model: SOD in peripheral blood; details: n = 6, x ± s
Procedure: as §1, §2

catalase (CAT) = assay: Bleomycin pulmonary fibrosis rat model: CAT in peripheral blood; details: n = 6, x ± s
Procedure: as §1, §2

[2] = after modeling (before the 14 days of treatment)
[3] = tail vein 3 mg/kg·d once a day for 14 days

## COc1ccc(CCC(=O)N(c2nccc3ccccc23)[C@@H]2CCCNC2)cc1 [Compound group 1, R-IMPP]
TIMP-1
  TIMP-1: 8.56 ± 0.58
MMP-2
  MMP-2: 2.67 ± 0.32
MMP-9
  MMP-9: 3.43 ± 0.34
VEGF-mRNA; [2]
  VEGF-mRNA, 14 days after modeling: 0.53 ± 0.16
VEGF-mRNA; [3]
  VEGF-mRNA, 14 days after treatment: 0.85 ± 0.16
[1]; [2]
  SOD, 14 days after modeling: 171.45 ± 13.92 U/ml
[1]; [3]
  SOD, 14 days after treatment: 218.56 ± 14.36 U/ml
Catalase (CAT); [2]
  CAT, 14 days after modeling: 9.43 ± 2.31 kU/g
Catalase (CAT); [3]
  CAT, 14 days after treatment: 14.45 ± 1.51 kU/g
